The test concerns the target T1, human Nav1.8/b3 (Homo sapiens, UniProt Q9Y5Y9).
T1 construct: expressed in transfected cells; host or cells: CHO
Kind of test: Compound Profiling Human NaV1.8/β3 Cell Line—SyncroPatch384PE Assay (automated patch clamp, stably transfected CHO cells). The test is classed as cell-based. Particulars: Nav1.8/b3 CHO cells.

Setting [1] is: P1 (IC50, resting state block), P1 measurement, resting state block, holding potential −120 mV, fourth set of compounds.
Setting [2] is: P2 (IC50, inactivated state block), P2 measurement, inactivated state block, inactivation step −35 mV 10 sec, fourth set of compounds.
The mark [3] stands for this setting: P1 (IC50, resting state block), P1 measurement, resting state block, holding potential −120 mV, first set of compounds.
Where [4] appears, read: P2 (IC50, inactivated state block), P2 measurement, inactivated state block, inactivation step −35 mV 10 sec, first set of compounds.
Setting [5] is: P1 (IC50, resting state block), P1 measurement, resting state block, holding potential −120 mV, third set of compounds.
[6] abbreviates: P2 (IC50, inactivated state block), P2 measurement, inactivated state block, inactivation step −35 mV 10 sec, third set of compounds.
Where [7] appears, read: P1 (IC50, resting state block), P1 measurement, resting state block, holding potential −120 mV, second set of compounds.
[8] abbreviates: P2 (IC50, inactivated state block), P2 measurement, inactivated state block, inactivation step −35 mV 10 sec, second set of compounds.

Like-named read-outs stand apart in the source and are kept apart here.

T1 sequence (Q9Y5Y9 whole entry): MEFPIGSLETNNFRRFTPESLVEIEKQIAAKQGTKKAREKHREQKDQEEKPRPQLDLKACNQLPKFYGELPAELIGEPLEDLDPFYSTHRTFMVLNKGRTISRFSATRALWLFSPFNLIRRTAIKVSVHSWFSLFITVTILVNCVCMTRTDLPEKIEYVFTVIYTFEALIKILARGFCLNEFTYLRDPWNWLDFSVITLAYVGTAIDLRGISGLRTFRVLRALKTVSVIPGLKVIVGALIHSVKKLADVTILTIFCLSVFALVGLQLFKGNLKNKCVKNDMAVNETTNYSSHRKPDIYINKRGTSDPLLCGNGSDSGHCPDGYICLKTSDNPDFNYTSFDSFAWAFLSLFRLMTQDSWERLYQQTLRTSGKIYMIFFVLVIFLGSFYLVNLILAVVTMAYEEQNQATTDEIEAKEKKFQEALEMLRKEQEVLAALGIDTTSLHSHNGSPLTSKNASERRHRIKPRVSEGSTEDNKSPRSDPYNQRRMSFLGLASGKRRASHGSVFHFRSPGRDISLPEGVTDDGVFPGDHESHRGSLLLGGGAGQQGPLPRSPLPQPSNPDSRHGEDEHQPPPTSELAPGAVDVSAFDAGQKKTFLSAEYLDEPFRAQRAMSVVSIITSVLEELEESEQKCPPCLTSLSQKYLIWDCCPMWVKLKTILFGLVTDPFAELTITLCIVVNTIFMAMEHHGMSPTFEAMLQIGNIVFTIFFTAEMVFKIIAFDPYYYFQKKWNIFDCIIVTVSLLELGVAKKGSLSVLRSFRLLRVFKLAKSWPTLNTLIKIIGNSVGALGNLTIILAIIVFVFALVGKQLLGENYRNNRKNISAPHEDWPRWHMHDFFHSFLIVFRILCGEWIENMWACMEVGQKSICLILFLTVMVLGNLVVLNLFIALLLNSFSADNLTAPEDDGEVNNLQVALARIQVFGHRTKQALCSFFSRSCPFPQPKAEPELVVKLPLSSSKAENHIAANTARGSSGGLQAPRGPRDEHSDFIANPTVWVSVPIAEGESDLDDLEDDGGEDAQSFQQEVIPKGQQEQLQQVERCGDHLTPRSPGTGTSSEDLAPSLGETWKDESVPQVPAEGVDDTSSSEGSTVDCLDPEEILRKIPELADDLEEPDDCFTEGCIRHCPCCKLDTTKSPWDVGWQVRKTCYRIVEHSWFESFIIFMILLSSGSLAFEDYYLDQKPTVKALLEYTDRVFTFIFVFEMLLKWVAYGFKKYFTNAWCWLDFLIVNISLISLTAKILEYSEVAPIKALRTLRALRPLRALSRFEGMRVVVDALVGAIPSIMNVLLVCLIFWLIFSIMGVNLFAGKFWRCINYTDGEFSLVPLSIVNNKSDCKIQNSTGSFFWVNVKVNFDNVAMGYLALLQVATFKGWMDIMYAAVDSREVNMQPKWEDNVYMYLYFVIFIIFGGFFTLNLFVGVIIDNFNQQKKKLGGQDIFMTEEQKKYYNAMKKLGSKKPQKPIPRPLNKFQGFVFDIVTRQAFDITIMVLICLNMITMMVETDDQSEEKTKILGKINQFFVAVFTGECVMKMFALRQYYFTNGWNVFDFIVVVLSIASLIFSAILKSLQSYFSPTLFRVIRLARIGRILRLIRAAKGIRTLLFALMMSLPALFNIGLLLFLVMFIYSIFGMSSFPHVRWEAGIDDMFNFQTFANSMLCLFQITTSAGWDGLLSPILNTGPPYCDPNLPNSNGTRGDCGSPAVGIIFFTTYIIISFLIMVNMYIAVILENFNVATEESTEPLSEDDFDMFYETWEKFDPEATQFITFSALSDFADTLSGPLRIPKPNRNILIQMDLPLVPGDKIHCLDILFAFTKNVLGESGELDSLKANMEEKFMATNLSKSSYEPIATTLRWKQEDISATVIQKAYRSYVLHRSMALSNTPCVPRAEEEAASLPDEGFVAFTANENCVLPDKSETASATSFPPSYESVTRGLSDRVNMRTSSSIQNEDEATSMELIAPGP
T1 sequence (Q9NY72 23-215 partner): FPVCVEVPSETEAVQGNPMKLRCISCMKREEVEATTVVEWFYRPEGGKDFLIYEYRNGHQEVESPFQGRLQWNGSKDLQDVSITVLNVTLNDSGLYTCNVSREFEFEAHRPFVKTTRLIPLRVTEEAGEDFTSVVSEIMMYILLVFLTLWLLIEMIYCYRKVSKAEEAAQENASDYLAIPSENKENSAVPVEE

On to `Cc1nc(F)ccc1Oc1ncc(C(F)(F)F)c(C)c1C(=O)Nc1cccc([S@@](C)(=O)=NC(=O)[C@@H]2CCCN2)c1` [Example 22D, N-(3-((R)—N-(L-prolyl)-S-methylsulfonimidoyl)phenyl)-2-((6-fluoro-2-methylpyridin-3-yl)oxy)-4-methyl-5-(trifluoromethyl)nicotinamide], for which the half-maximal inhibitory concentration (IC50) under setting [1] was below 5 nM and the concentration for half-maximal inhibition (IC50) under setting [2] is below 5 nM.

Consider `Cc1nc(F)ccc1Oc1cc(C(F)(F)F)c(Cl)c(C)c1C(=O)Nc1ccnc([S@](C)(=N)=O)c1` [Example 65A], for which the IC50 reads like this: under setting [3], below 5 nM; under setting [4], below 5 nM.

With `Cc1nc(F)ccc1Oc1ncc(C(F)(F)F)c(C)c1C(=O)Nc1cccc([S@@](C)(=O)=NC(=O)[C@@H]2CCOC2)c1` [Example 10D, 2-((6-fluoro-2-methylpyridin-3-yl)oxy)-4-methyl-N-(3-((R)—S-methyl-N—((R)-tetrahydrofuran-3-carbonyl)sulfonimidoyl)phenyl)-5-(trifluoromethyl)nicotinamide], the concentration for half-maximal inhibition (IC50) by setting is: under setting [1], below 5 nM; under setting [2], below 5 nM.

As to `Cc1cc(C#N)ccc1Oc1cc(C(F)(F)F)nnc1C(=O)Nc1cccc(S(C)(=O)=O)c1` [Example 29C, 4-(4-cyano-2-methylphenoxy)-N-(3-(methylsulfonyl)phenyl)-6-(trifluoromethyl)pyridazine-3-carboxamide], the half-inhibitory concentration (IC50) was above 200 nM under setting [5] and above 200 nM under setting [6].

In the case of `Cc1nc(F)ccc1Oc1cc(C(F)(F)F)c(Cl)cc1C(=O)Nc1ccc(F)c([S@+](C)[O-])c1` [Example 55A], the IC50 reads like this: under setting [3], below 5 nM; under setting [4], below 5 nM.

`Cc1nc(F)ccc1Oc1ncc(C(F)(F)F)c(C)c1C(=O)Nc1cccc([S@@](C)(=O)=NC(=O)[C@H](C)O)c1` [Example 13D, 2-((6-fluoro-2-methylpyridin-3-yl)oxy)-N-(3-((R)—N—((S)-2-hydroxypropanoyl)-S-methylsulfonimidoyl)phenyl)-4-methyl-5-(trifluoromethyl)nicotinamide]: the half-inhibitory concentration (IC50) reads like this: under setting [1], below 5 nM; under setting [2], below 5 nM.

For the compound `Cc1nc(F)ccc1Oc1ccc(C(F)(F)F)c(C)c1C(=O)Nc1cccc([S@@](C)(=O)=NC(=O)[C@@H](C)O)c1` [Example 28B], the IC50 is, setting by setting: under setting [7], below 5 nM; under setting [8], below 5 nM.

With `Cc1nc(F)ccc1Oc1ncc(C(F)(F)F)c(C)c1C(=O)Nc1cccc([S@@](C)(=O)=NC(=O)[C@@H]2C[C@H](O)CN2)c1` [Example 27D, 2-((6-fluoro-2-methylpyridin-3-yl)oxy)-N-(3-((R)—N-((2S,4S)-4-hydroxypyrrolidine-2-carbonyl)-S-methylsulfonimidoyl)phenyl)-4-methyl-5-(trifluoromethyl)nicotinamide], the IC50 by setting is: under setting [1], below 5 nM; under setting [2], below 5 nM.

Regarding `Cc1nc(F)ccc1Oc1ncc(C(F)(F)F)c(C)c1C(=O)Nc1ccc(F)c([S+](C)[O-])c1` (centres unmarked) [Example 102C], the half-inhibitory concentration (IC50) fell in the range of 5 to 50 nM under setting [5] and 5 to 50 nM under setting [6].

`Cc1nc(F)ccc1Oc1ccc(C(F)(F)F)c(C)c1C(=O)Nc1cccc([S@@](C)(=O)=NC(=O)CO)c1` [Example 27B]: the IC50 was below 5 nM under setting [7] and below 5 nM under setting [8].

For the compound `COc1cc(C#N)ccc1Oc1cc(C(F)(F)F)nnc1C(=O)Nc1cccc(S(C)(=O)=O)c1` [Example 38C, 4-(4-cyano-2-methoxyphenoxy)-N-(3-(methylsulfonyl)phenyl)-6-(trifluoromethyl)pyridazine-3-carboxamide], the half-maximal inhibitory concentration (IC50) is above 200 nM under setting [5] and 100 to 200 nM under setting [6].

For the compound `COc1cc(C#N)ccc1Oc1ncc(-c2ccc(C(F)F)cc2)c(C)c1C(=O)Nc1ccnc(S(C)(=N)=O)c1` (centres unmarked) [Example 125C], the 50% inhibitory concentration (IC50) runs as follows: under setting [5], above 200 nM; under setting [6], above 200 nM.

`CNCCN=[S@](C)(=O)c1cccc(NC(=O)c2c(Oc3ccc(F)nc3C)ncc(C(F)(F)F)c2C)c1` [Example 109C]: the half-maximal inhibitory concentration (IC50) is below 5 nM (P1 measurement, resting state block, holding potential −120 mV, third set of compounds, read-out: P1 (IC50, resting state block)) and below 5 nM (P2 measurement, inactivated state block, inactivation step −35 mV 10 sec, third set of compounds, read-out: P2 (IC50, inactivated state block)).

The record behind these values is patent publication US20260356804A1, “SODIUM CHANNEL BLOCKING COMPOUNDS, DERIVATIVES THEREOF, AND METHODS OF THEIR USE” (LATIGO BIOTHERAPEUTICS, INC., priority 2022, published 2026).
